Results taken from PubChem BioAssay AID489017 (The Scripps Research Institute Molecular Screening Center, 2010).
Active and inactive are the calls of the source. The rule behind the calls is not given here.

Experiments:
Test in all cases: off-target binding and CYP450 inhibition panel, profiling panel, selectivity assay for S1P4 antagonist project, biochemical, Ricerca HitProfilingScreen (AID 489017)
Sigma 1 = conditions: Ricerca receptor/enzyme binding panel plus CYP450, at 10 µM, active compounds read high
Adrenergic alpha1B = conditions: Ricerca receptor/enzyme binding panel plus CYP450, at 10 µM, active compounds read high
[1] = biological target: Muscarinic acetylcholine receptor M2 (Homo sapiens) (UniProt P08172); conditions: Ricerca receptor/enzyme binding panel plus CYP450, at 10 µM, active compounds read high
Nicotinic Acetylcholine = conditions: Ricerca receptor/enzyme binding panel plus CYP450, at 10 µM, active compounds read high
[2] = test system: Norepinephrine Transporter (NET); conditions: Ricerca receptor/enzyme binding panel plus CYP450, at 10 µM, active compounds read high
Cannabinoid CB1 = conditions: Ricerca receptor/enzyme binding panel plus CYP450, at 10 µM, active compounds read high
[3] = biological target: Muscarinic acetylcholine receptor M3 (Homo sapiens) (UniProt P20309); conditions: Ricerca receptor/enzyme binding panel plus CYP450, at 10 µM, active compounds read high
[4] = test system: Alpha-2A adrenergic receptor (Homo sapiens) + Histamine H1 receptor (Homo sapiens) + Mu-type opioid receptor (Homo sapiens); conditions: Ricerca receptor/enzyme binding panel plus CYP450; at 10 µM; active compounds read high
Sodium Channel = conditions: Ricerca receptor/enzyme binding panel plus CYP450, site 2, at 10 µM, active compounds read high
[5] = biological target: Beta-2 adrenergic receptor (Homo sapiens) (UniProt P07550); conditions: Ricerca receptor/enzyme binding panel plus CYP450; Adrenergic beta2; at 10 µM; active compounds read high
[6] = biological target: 5-hydroxytryptamine receptor 2B (Homo sapiens) (UniProt P41595); conditions: Ricerca receptor/enzyme binding panel plus CYP450; Serotonin (5-Hydroxytryptamine) 5-HT2B; at 10 µM; active compounds read high
Adrenergic alpha1A = conditions: Ricerca receptor/enzyme binding panel plus CYP450, at 10 µM, active compounds read high
[7] = biological target: Cytochrome P450 2C9 (Homo sapiens) (UniProt P11712); conditions: Ricerca receptor/enzyme binding panel plus CYP450; CYP450 2C9; at 10 µM; active compounds read high
Adenosine A1 = conditions: Ricerca receptor/enzyme binding panel plus CYP450, at 10 µM, active compounds read high
[8] = biological target: Cytochrome P450 2D6 (Homo sapiens) (UniProt P10635); conditions: Ricerca receptor/enzyme binding panel plus CYP450; CYP450 2D6; at 10 µM; active compounds read high
CYP450 2C19 = conditions: Ricerca receptor/enzyme binding panel plus CYP450, at 10 µM, active compounds read high
GABAA Central = conditions: at 10 µM, active compounds read high
Histamine H1 = conditions: Ricerca receptor/enzyme binding panel plus CYP450, at 10 µM, active compounds read high
Prostanoid EP4 = conditions: Ricerca receptor/enzyme binding panel plus CYP450, at 10 µM, active compounds read high
Dopamine D2S = conditions: Ricerca receptor/enzyme binding panel plus CYP450, at 10 µM, active compounds read high
[9] = biological target: Cytochrome P450 1A2 (Homo sapiens) (UniProt P05177); conditions: Ricerca receptor/enzyme binding panel plus CYP450; CYP450 1A2; at 10 µM; active compounds read high
Calcium Channel L-Type = conditions: Ricerca receptor/enzyme binding panel plus CYP450, Dihydropyridine site, at 10 µM, active compounds read high
Adenosine A2A = conditions: Ricerca receptor/enzyme binding panel plus CYP450, at 10 µM, active compounds read high
Adrenergic beta1 = conditions: Ricerca receptor/enzyme binding panel plus CYP450, at 10 µM, active compounds read high
Glutamate NMDA = conditions: Ricerca receptor/enzyme binding panel plus CYP450, Phencyclidine site, at 10 µM, active compounds read high
[10] = biological target: Cytochrome P450 3A4 (Homo sapiens) (UniProt P08684); conditions: Ricerca receptor/enzyme binding panel plus CYP450; CYP450 3A4; at 10 µM; active compounds read high
[11] = biological target: D(1A) dopamine receptor (Homo sapiens) (UniProt P21728); conditions: Ricerca receptor/enzyme binding panel plus CYP450; Dopamine D1; at 10 µM; active compounds read high
Opiate mu (OP3, MOP) = conditions: Ricerca receptor/enzyme binding panel plus CYP450, at 10 µM, active compounds read high
[12] = biological target: Voltage-gated inwardly rectifying potassium channel KCNH2 (Homo sapiens) (UniProt Q12809); conditions: Ricerca receptor/enzyme binding panel plus CYP450; Potassium Channel hERG; at 10 µM; active compounds read high
[13] = biological target: Alpha-2A adrenergic receptor (Homo sapiens) (UniProt P08913); conditions: Ricerca receptor/enzyme binding panel plus CYP450; Adrenergic alpha2A; at 10 µM; active compounds read high

Measured: inhibition

Chain of Muscarinic acetylcholine receptor M3 (Homo sapiens) (P20309 whole entry, looked up): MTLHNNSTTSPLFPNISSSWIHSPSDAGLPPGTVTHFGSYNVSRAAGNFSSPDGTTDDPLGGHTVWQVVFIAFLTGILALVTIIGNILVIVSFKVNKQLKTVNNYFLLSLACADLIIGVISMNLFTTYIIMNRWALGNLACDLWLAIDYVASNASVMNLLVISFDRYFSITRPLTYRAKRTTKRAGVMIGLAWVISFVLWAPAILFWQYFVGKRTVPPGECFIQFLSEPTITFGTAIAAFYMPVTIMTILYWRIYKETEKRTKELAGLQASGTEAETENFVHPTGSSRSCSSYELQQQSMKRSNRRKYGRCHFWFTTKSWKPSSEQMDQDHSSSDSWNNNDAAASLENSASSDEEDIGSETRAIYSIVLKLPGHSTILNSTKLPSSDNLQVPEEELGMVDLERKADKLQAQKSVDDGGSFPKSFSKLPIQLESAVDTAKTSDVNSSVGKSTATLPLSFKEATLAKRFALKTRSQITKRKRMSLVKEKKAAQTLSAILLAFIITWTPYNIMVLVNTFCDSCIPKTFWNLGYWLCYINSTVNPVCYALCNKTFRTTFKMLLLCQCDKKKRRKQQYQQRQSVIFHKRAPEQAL
Chain of Cytochrome P450 1A2 (Homo sapiens) (P05177 whole entry, looked up): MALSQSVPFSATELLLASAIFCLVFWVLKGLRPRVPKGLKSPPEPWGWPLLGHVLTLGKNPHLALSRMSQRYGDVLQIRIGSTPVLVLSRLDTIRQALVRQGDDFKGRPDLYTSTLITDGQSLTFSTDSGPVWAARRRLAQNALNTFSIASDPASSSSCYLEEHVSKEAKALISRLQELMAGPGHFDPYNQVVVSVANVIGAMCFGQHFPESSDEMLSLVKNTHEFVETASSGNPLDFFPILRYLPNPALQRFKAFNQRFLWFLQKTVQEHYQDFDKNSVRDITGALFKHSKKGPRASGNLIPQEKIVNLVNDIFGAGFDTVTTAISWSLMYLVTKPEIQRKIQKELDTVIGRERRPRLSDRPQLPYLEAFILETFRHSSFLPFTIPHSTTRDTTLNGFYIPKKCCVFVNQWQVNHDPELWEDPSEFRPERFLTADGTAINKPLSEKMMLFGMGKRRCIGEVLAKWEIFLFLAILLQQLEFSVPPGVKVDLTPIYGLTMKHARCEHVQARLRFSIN
Chain of Beta-2 adrenergic receptor (Homo sapiens) (P07550 whole entry, looked up): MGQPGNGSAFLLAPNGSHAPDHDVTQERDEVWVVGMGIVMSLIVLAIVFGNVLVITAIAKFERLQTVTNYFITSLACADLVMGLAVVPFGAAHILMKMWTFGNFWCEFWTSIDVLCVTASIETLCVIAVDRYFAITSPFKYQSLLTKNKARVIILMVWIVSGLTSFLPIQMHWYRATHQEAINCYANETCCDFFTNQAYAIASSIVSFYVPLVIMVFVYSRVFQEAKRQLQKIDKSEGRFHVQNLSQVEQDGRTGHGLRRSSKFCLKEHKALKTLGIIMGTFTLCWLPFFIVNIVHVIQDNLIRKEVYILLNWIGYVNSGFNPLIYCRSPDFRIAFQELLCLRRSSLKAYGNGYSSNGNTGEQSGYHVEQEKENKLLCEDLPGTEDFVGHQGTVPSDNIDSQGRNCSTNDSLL
Chain of Cytochrome P450 2D6 (Homo sapiens) (P10635 whole entry, looked up): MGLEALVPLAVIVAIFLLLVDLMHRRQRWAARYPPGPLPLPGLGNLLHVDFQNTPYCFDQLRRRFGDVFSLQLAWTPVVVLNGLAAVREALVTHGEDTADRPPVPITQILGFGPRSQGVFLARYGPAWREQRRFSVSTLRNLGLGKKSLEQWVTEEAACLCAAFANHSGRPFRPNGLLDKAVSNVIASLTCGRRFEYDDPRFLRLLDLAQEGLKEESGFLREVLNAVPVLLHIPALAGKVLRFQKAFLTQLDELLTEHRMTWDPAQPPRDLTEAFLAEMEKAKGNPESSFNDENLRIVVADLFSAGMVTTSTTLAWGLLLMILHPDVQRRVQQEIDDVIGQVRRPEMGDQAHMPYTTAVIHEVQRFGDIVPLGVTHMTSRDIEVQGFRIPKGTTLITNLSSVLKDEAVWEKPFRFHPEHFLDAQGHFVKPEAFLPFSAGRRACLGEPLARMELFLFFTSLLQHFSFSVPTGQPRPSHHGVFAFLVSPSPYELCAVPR
Chain of Cytochrome P450 2C9 (Homo sapiens) (P11712 whole entry, looked up): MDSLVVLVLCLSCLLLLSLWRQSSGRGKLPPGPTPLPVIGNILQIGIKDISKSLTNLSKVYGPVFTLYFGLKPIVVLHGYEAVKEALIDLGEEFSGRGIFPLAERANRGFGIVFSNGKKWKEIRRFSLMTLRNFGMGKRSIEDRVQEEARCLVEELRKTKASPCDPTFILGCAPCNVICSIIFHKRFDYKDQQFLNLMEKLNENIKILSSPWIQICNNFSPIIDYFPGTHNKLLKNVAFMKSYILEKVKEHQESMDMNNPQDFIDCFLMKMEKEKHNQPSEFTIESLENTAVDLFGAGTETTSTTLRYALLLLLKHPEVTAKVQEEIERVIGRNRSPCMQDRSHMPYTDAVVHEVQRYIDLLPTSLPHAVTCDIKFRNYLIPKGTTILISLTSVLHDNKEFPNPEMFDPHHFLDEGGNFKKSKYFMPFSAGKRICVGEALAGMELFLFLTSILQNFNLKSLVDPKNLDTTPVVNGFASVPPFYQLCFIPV
Chain of 5-hydroxytryptamine receptor 2B (Homo sapiens) (P41595 whole entry, looked up): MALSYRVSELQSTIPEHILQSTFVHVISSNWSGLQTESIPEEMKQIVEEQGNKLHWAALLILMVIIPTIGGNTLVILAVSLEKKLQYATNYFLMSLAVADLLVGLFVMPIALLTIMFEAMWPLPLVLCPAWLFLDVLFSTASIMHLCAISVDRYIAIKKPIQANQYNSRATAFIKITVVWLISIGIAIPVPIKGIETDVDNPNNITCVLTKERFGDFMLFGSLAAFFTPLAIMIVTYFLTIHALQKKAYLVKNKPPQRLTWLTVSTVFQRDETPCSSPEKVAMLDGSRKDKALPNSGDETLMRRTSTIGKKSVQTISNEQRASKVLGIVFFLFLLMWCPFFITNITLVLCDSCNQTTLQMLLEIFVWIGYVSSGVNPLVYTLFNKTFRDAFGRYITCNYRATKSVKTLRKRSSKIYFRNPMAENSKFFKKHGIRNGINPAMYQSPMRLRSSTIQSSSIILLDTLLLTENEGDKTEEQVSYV
Chain of Cytochrome P450 3A4 (Homo sapiens) (P08684 whole entry, looked up): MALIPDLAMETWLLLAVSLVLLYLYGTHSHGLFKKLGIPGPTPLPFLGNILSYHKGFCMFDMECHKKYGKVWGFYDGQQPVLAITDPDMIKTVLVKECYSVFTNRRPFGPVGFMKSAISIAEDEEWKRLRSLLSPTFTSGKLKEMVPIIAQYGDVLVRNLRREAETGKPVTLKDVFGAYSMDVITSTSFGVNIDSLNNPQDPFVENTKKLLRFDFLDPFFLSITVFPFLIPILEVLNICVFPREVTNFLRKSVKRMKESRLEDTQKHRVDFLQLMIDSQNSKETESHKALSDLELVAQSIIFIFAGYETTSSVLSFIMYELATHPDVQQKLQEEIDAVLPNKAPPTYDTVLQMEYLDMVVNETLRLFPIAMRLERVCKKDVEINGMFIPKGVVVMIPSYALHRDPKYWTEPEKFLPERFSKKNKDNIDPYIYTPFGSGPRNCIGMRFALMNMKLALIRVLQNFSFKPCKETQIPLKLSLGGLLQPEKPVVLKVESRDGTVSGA
Chain of D(1A) dopamine receptor (Homo sapiens) (P21728 whole entry, looked up): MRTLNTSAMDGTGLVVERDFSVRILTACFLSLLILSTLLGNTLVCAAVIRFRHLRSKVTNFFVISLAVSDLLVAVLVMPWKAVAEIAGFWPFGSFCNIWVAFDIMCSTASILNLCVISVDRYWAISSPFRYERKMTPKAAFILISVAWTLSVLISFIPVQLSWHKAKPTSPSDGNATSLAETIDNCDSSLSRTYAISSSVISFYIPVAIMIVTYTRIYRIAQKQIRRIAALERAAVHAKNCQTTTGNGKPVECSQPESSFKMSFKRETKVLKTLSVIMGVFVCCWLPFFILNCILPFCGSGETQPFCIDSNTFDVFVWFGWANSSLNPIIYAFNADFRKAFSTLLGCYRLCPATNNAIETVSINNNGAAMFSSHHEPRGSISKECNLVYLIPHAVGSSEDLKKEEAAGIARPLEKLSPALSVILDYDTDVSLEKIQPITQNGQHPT
Chain of Alpha-2A adrenergic receptor (Homo sapiens) (P08913 whole entry, looked up): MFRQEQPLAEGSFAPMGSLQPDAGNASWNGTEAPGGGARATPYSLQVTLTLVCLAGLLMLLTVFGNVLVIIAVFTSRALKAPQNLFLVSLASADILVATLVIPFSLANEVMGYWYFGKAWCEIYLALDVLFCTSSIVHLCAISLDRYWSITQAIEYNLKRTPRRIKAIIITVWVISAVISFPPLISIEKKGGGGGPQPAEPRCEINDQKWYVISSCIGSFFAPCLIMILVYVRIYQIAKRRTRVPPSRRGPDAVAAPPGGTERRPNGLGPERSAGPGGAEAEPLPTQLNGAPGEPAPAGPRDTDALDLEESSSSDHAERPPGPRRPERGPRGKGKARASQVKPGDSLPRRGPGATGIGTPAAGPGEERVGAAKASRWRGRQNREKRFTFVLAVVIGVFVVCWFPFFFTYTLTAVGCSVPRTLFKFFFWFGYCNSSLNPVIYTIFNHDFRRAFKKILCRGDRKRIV
Chain of Muscarinic acetylcholine receptor M2 (Homo sapiens) (P08172 whole entry, looked up): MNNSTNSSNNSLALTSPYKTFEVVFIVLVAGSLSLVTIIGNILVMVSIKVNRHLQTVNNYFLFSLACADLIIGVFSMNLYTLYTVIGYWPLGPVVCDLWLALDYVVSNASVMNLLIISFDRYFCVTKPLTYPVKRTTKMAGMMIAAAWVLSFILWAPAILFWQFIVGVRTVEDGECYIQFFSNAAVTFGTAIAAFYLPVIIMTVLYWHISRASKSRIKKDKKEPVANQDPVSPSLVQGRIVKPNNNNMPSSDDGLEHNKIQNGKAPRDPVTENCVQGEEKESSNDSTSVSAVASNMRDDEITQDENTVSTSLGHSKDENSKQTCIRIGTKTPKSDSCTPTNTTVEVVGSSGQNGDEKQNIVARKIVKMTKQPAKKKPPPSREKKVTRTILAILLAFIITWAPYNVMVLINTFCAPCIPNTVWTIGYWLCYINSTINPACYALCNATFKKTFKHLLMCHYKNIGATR

CCc1cccc(CC)c1NC(=O)c1ccc(-c2cc(Cl)ccc2Cl)o1
inactive: Sigma 1 -7% | Adrenergic alpha1B -6% | [1] -3% | Nicotinic Acetylcholine -12% | [2] 17% | Cannabinoid CB1 15% | [3] 2% | [4] -4% | Sodium Channel 43% | [5] 11% | [6] 40% | Adrenergic alpha1A -3% | Adenosine A1 0% | [8] 1% | CYP450 2C19 37% | GABAA Central; Ricerca receptor/enzyme binding panel plus CYP450, Flunitrazepam site 7% | GABAA Central; Ricerca receptor/enzyme binding panel plus CYP450, Muscimol site 8% | Histamine H1 30% | Prostanoid EP4 27% | Dopamine D2S 13% | [9] 27% | Calcium Channel L-Type 12% | Adenosine A2A -6% | Adrenergic beta1 0% | Glutamate NMDA 1% | [10] 22% | [11] 5% | Opiate mu (OP3, MOP) 8% | [12] 10% | [13] 18%
active: [7] 51%
